From patent publication US7268128B2, “1,3,5-trisubstituted-5-phenyl and 5-pyridyl pyrazolopyrimidinone derivatives having PDE7 inhibiting action” (Ausbio Pharma Co., Ltd., priority 2001, dated 2007) come the findings set out here.

T1 sequence (Q13946 whole entry): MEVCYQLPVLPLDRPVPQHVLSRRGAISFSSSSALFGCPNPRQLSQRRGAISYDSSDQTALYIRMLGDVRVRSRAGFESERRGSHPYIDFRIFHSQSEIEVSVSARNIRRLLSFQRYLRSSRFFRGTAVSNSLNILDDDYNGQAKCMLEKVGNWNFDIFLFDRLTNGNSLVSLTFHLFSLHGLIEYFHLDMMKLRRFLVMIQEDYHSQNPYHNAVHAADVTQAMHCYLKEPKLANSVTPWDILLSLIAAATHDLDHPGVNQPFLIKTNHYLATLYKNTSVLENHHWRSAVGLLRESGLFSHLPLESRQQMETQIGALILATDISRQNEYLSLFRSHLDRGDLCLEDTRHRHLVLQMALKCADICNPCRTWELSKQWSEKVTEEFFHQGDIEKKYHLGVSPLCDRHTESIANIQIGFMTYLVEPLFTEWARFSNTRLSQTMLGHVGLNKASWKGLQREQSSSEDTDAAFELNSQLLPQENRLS

This assay has as its target T1, PDE7 (type VII phosphodiesterase) (Homo sapiens, UniProt Q13946).
T1 construct: endogenous in cells; host or cells: MOLT-4 (ATCC CRL-1582), soluble fraction, HiTrapQ anion-exchange fraction
The assay can be described thus: PDE7 inhibiting activity (3H-cAMP hydrolysis, active fraction from MOLT-4 cells). Conditions: PDE7 fraction from MOLT-4 cells, 0.064 μM cAMP, 10 μM rolipram present, 2 hours at 25° C.; read-out: IC50 values for phosphodiesterase inhibiting activities (PDE7). The format is biochemical. The procedure, abridged:
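PDE7 from MOLT-4 cell soluble fraction, HiTrapQ NaCl-gradient purified. Compounds reacted 2 h at 25° C in 20 mM tris-HCl pH 7.5, 1 mM MgCl2, 0.1 μCi 3H-cAMP (0.064 μM cAMP), 10 μM rolipram, 5′-nucleotidase; QAE-Sephadex-separated supernatant counted.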
Broadly, the IC50 is the midpoint of a concentration-inhibition curve. On to `COc1cc(S(=O)(=O)N2CCSCC2)ccc1-c1nc2c(c(C3CCCCC3)nn2C)c(=O)[nH]1` [Example 165, 3-Cyclohexyl-6-[2-methoxy-4-(4-thiomorpholinylsulfonyl)phenyl]-1-methyl-1,5-dihydro-4H-pyrazolo[3,4-d]pyrimidin-4-one], for which the IC50 was no more than 1 µM. In the case of `CNC1CCN(S(=O)(=O)c2ccc(-c3nc4c(c(C5CCCCC5)nn4C)c(=O)[nH]3)c(OC)c2)CC1` [Example 169, 3-Cyclohexyl-6-(2-methoxy-4-{[4-(methylamino)-1-piperidinyl]sulfonyl}phenyl)-1-methyl-1,5-dihydro-4H-pyrazolo[3,4-d]pyrimidin-4-one monomethanesulfonate], the IC50 is no more than 1 µM. With `COc1cc(S(=O)(=O)N2CCC(N)C2)ccc1-c1nc2c(c(C3CCCCC3)nn2C)c(=O)[nH]1` (stereo not shown) [Example 172, 6-{4-[(3-Amino-1-pyrrolidinyl)sulfonyl]-2-methoxyphenyl}-3-cyclohexyl-1-methyl-1,5-dihydro-4H-pyrazolo[3,4-d]pyrimidin-4-one monomethanesulfonate], the IC50 is no more than 1 µM. As to `COc1cc(S(=O)(=O)N2CCC(N)CC2)ccc1-c1nc2c(c(C3CCCCC3)nn2C)c(=O)[nH]1` [Example 175, 6-{4-[(4-Amino-1-piperidinyl)sulfonyl]-2-methoxyphenyl}-3-cyclohexyl-1-methyl-1,5-dihydro-4H-pyrazolo[3,4-d]pyrimidin-4-one monomethanesulfonate], the IC50 is no more than 1 µM. `COc1cc(N2CCSCC2)ccc1-c1nc2c(c(C3CCCCC3)nn2C)c(=O)[nH]1` [Example 176, 3-Cyclohexyl-6-[2-methoxy-4-(4-thiomorpholinyl)phenyl]-1-methyl-1,5-dihydro-4H-pyrazolo[3,4-d]pyrimidin-4-one]: the IC50 was no more than 1 µM. Turning to `CN1CCN(c2ccc(-c3nc4c(c(C5CCCCC5)nn4C)c(=O)[nH]3)cc2)CC1` [Example 179, 3-Cyclohexyl-1-methyl-6-[4-(4-methyl-1-piperazinyl)phenyl]-1,5-dihydro-4H-pyrazolo[3,4-d]pyrimidin-4-one monomethanesulfonate], the IC50 was no more than 1 µM. For the molecule `COc1cc(N2CCC(N)CC2)ccc1-c1nc2c(c(C3CCCCC3)nn2C)c(=O)[nH]1` [Example 185, 6-[4-(4-Amino-1-piperidinyl)-2-methoxyphenyl]-3-cyclohexyl-1-methyl-1,5-dihydro-4H-pyrazolo[3,4-d]pyrimidin-4-one monomethanesulfonate], the IC50 was no more than 0.01 µM.

For `CNC1CCN(c2ccc(-c3nc4c(c(C5CCCCC5)nn4C)c(=O)[nH]3)cc2)CC1` [Example 189, 3-Cyclohexyl-1-methyl-6-{4-[4-(methylamino)-1-piperidinyl]phenyl}-1,5-dihydro-4H-pyrazolo[3,4-d]pyrimidin-4-one monomethanesulfonate], the IC50 is no more than 1 µM.

As to `COc1cc(S(=O)(=O)N2CCS(=O)(=O)CC2)ccc1-c1nc2c(c(C3CCCCC3)nn2C)c(=O)[nH]1` [Example 191, 3-Cyclohexyl-6-{4-[(1,1-dioxido-4-thiomorpholinyl)sulfonyl]-2-methoxyphenyl}-1-methyl-1,5-dihydro-4H-pyrazolo[3,4-d]pyrimidin-4-one], the IC50 is no more than 1 µM. In the case of `COc1cc(N2CCS(=O)(=O)CC2)ccc1-c1nc2c(c(C3CCCCC3)nn2C)c(=O)[nH]1` [Example 192, 3-Cyclohexyl-6-[4-(1,1-dioxido-4-thiomorpholinyl)-2-methoxyphenyl]-1-methyl-1,5-dihydro-4H-pyrazolo[3,4-d]pyrimidin-4-one], the IC50 was no more than 0.01 µM. The value for `CCn1nc(C2CCCCC2)c2c(=O)[nH]c(-c3ccc(N4CCN(C)CC4)cc3OC)nc21` [Example 194, 3-Cyclohexyl-1-ethyl-6-[2-methoxy-4-(4-methyl-1-piperazinyl)phenyl]-1,5-dihydro-4H-pyrazolo[3,4-d]pyrimidin-4-one] was no more than 1 µM; that for `CCn1nc(C2CCCCC2)c2c(=O)[nH]c(-c3ccc(N4CCC(NC)CC4)cc3OC)nc21` [Example 196] was no more than 1 µM. The value for `COc1cc(S(=O)(=O)N2CCCN(C)CC2)ccc1-c1nc2c(C)nn(C3CCCCC3)c2c(=O)[nH]1` [Example 198, 1-Cyclohexyl-5-{2-methoxy-4-[(4-methyl-1,4-diazepan-1-yl)sulfonyl]phenyl}-3-methyl-1,6-dihydro-7H-pyrazolo[4,3-d]pyrimidin-7-one] was no more than 1 µM; that for `COc1cc(S(=O)(=O)N2CCC(O)CC2)ccc1-c1nc2c(C)nn(C3CCCCC3)c2c(=O)[nH]1` [Example 199, 1-Cyclohexyl-5-{4-[(4-hydroxy-1-piperidinyl)sulfonyl]-2-methoxyphenyl}-3-methyl-1,6-dihydro-7H-pyrazolo[4,3-d]pyrimidin-7-one] was no more than 1 µM; that for `COc1cc(S(=O)(=O)NCCO)ccc1-c1nc2c(C)nn(C3CCCCC3)c2c(=O)[nH]1` [Example 200, 4-(1-Cyclohexyl-3-methyl-7-oxo-6,7-dihydro-1H-pyrazolo[4,3-d]pyrimidin-5-yl)-N-(2-hydroxyethyl)-3-methoxybenzenesulfonamide] was no more than 1 µM. The value for `CNS(=O)(=O)c1ccc(-c2nc3c(C)nn(C4CCCCC4)c3c(=O)[nH]2)c(OC)c1` [Example 201, 4-(1-Cyclohexyl-3-methyl-7-oxo-6,7-dihydro-1H-pyrazolo[4,3-d]pyrimidin-5-yl)-3-methoxy-N-methylbenzenesulfonamide] was no more than 1 µM.

For `COc1cc(S(=O)(=O)N2CCCNCC2)ccc1-c1nc2c(C)nn(C3CCCCC3)c2c(=O)[nH]1` [Example 203, 1-Cyclohexyl-5-[4-(1,4-diazepan-1-ylsulfonyl)-2-methoxyphenyl]-3-methyl-1,6-dihydro-7H-pyrazolo[4,3-d]pyrimidin-7-one monomethanesulfonate], the IC50 was no more than 1 µM.

In the case of `CNS(=O)(=O)c1ccc(-c2nc3c(c(C4CCCCC4)nn3C)c(=O)[nH]2)c(OC)c1` [Example 204, 4-(3-Cyclohexyl-1-methyl-4-oxo-4,5-dihydro-1H-pyrazolo[3,4-d]pyrimidin-6-yl)-3-methoxy-N-methylbenzenesulfonamide], the IC50 is no more than 1 µM.

Take `CCn1nc(C2CCCCC2)c2c(=O)[nH]c(-c3ccc(S(=O)(=O)N4CCC(O)CC4)cc3OC)nc21` [Example 207, 3-Cyclohexyl-1-ethyl-6-{4-[(4-hydroxy-1-piperidinyl)sulfonyl]-2-methoxyphenyl}-1,5-dihydro-4H-pyrazolo[3,4-d]pyrimidin-4-one]: the IC50 is no more than 1 µM.

As to `CCn1nc(C2CCCCC2)c2c(=O)[nH]c(-c3ccc(S(=O)(=O)N4CCCN(C)CC4)cc3OC)nc21` [Example 208, 3-Cyclohexyl-1-ethyl-6-{2-methoxy-4-[(4-methyl-1,4-diazepan-1-yl)sulfonyl]phenyl}-1,5-dihydro-4H-pyrazolo[3,4-d]pyrimidin-4-one], the IC50 is no more than 1 µM. The value for `CCn1nc(C2CCCCC2)c2c(=O)[nH]c(-c3ccc(S(=O)(=O)N4CCCNCC4)cc3OC)nc21` [Example 209, 3-Cyclohexyl-6-[4-(1,4-diazepan-1-ylsulfonyl)-2-methoxyphenyl]-1-ethyl-1,5-dihydro-4H-pyrazolo[3,4-d]pyrimidin-4-one] was no more than 1 µM; that for `COc1cc(S(=O)(=O)N(C)CCN)ccc1-c1nc2c(C)nn(C3CCCCC3)c2c(=O)[nH]1` [Example 210-1, N-(2-aminoethyl)-4-(1-cyclohexyl-3-methyl-7-oxo-6,7-dihydro-1H-pyrazolo[4,3-d]pyrimidin-5-yl)-3-methoxy-N-methylbenzenesulfonamide] was no more than 1 µM.
